“Also recorded” adds a separate entry of the source.
Experiments:
α1a adrenoreceptor = molecular target: T1, α1a adrenoreceptor (Homo sapiens, UniProt P35348); assay: Competition binding, [3H]-prazosin, α1a CHO cell membranes
T1 construct: expressed in transfected cells
T1 sequence (P35348 1-466): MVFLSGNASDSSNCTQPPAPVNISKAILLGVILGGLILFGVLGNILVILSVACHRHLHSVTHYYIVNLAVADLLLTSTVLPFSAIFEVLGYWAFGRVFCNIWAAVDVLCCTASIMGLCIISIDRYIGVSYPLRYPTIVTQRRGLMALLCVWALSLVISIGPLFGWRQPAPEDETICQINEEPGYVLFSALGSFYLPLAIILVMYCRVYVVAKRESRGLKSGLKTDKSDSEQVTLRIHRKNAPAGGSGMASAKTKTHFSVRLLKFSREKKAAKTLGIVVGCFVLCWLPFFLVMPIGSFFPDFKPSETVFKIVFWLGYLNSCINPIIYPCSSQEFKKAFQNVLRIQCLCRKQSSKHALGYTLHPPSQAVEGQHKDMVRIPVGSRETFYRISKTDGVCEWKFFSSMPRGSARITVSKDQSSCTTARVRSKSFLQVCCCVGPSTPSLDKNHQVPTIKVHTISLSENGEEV

α2b adrenoreceptor [1] = molecular target: T2, α2b adrenoreceptor (Homo sapiens, UniProt P18089); assay: [35S]-GTPγS binding exchange, α2b CHO cell membranes; assay type: biochemical; conditions: for stimulation of [35S]-GTPγS binding, α2b (in words): CHO cell membranes
T2 construct: expressed in transfected cells; host or cells: CHO (Chinese hamster ovary) cells, membranes
T2 sequence (P18089 1-450): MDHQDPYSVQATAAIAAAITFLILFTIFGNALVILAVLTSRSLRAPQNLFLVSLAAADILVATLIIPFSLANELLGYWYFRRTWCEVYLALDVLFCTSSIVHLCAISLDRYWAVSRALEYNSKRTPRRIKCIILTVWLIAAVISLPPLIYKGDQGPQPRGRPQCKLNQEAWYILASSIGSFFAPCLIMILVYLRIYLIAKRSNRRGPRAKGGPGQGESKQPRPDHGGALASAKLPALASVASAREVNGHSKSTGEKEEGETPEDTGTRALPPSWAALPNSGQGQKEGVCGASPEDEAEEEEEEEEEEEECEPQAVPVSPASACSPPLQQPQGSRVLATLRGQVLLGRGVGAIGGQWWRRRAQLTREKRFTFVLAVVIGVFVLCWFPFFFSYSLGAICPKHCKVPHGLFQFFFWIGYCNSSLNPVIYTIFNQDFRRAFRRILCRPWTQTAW
Protocol: (§1) The affinity and activity of phenylephrine metabolites were evaluated in human recombinant α1 and α2 adrenoreceptor binding and activity assays. […] Affinity of the metabolites was determined by receptor binding assays. Functional activity of the metabolites was assessed using an [^35S]-GTPγS binding exchange assay for the α2 receptor subtypes and a cell-based calcium flux response for the α1 receptor subtypes.
(§2) Assay buffer was 75 mM Tris-HCl pH 7.4, 12.5 mM MgCl2, 2 mM EDTA and 1 μM GDP. Plates were counted on a Packard TopCount. The percent increase over basal binding of [^35S]-GTPγS, a measure of efficacy, was calculated as follows: 100×[[mean total sample cpm−basal cpm]÷by basal cpm]. Basal cpm was defined as the mean cpm in the absence of agonist compound minus the mean non-specific binding cpm.
(§3) Each metabolite was evaluated in each assay in at least 2 independent experiments and a representative assay of each metabolite/assay combination is shown.

α2c adrenoreceptor [2] = molecular target: T3, α2c adrenoreceptor (Homo sapiens, UniProt P18825); assay: [35S]-GTPγS binding exchange, α2c CHO cell membranes; assay type: biochemical; conditions: for stimulation of [35S]-GTPγS binding, α2c (in words): CHO cell membranes
T3 construct: expressed in transfected cells; host or cells: CHO (Chinese hamster ovary) cells, membranes
T3 sequence (P18825 1-462): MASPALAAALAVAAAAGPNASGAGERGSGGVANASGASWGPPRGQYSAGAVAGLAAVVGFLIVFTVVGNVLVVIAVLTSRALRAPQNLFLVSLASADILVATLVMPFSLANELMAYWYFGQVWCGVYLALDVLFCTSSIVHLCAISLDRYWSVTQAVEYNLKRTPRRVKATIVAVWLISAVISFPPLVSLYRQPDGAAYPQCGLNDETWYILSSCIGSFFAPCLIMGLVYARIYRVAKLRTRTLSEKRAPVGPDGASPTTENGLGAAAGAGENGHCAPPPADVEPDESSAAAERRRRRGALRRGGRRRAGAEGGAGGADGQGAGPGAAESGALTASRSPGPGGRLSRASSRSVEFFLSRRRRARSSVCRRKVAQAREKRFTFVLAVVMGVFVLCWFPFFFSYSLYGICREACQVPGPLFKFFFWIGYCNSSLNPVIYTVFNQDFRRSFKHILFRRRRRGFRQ
Protocol: as §1, §2, §3

α2a adrenoreceptor = molecular target: T4, α2a adrenoreceptor (Homo sapiens, UniProt P08913); assay: Competition binding, [3H]-UK14304, α2a CHO cell membranes; conditions: for inhibition of [3H]-UK14304 binding, α2a (in words): CHO cell membranes
T4 construct: expressed in transfected cells; host or cells: CHO (Chinese hamster ovary) cells, membranes
T4 sequence (P08913 1-465): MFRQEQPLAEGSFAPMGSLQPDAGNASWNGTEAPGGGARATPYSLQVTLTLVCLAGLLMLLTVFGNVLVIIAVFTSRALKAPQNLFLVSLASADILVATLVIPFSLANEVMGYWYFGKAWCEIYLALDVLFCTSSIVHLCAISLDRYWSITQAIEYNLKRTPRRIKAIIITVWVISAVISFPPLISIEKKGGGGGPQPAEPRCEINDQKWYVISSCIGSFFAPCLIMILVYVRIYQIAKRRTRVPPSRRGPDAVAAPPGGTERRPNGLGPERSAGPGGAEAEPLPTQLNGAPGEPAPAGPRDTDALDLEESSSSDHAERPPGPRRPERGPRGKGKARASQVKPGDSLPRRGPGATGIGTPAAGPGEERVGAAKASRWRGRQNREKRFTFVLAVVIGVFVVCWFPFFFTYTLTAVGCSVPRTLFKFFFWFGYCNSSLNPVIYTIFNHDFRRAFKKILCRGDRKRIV
Protocol: as §1
(§4) Competition Binding Assays
(§5) Competition binding assays for the α2 adrenoreceptors were performed using 20 μg membrane protein per well in binding buffer (75 mM Tris-HCl pH 7.4, 12.5 mM MgCl2, […] EDTA, 0.2% bovine serum albumin). […] Binding was terminated by rapid filtration through GF/C unifilter plates, presoaked with 0.3% polyethylenimine, with five washes with 0.5 ml cold 50 mM Tris-HCl ph 7.4, using a Packard Filtermate Harvester. After drying, bound radioactivity was determined by liquid scintillation counting (Packard TopCount) with Microscint 20, 50 μl/well. Binding data were analyzed using GraphPad Prism.
as §3

α2b adrenoreceptor [3] = molecular target: T2, α2b adrenoreceptor; assay: Competition binding, [3H]-UK14304, α2b CHO cell membranes; conditions: for inhibition of [3H]-UK14304 binding, α2b (in words): CHO cell membranes
Protocol: as §1, §4, §5, §3

α2c adrenoreceptor [4] = molecular target: T3, α2c adrenoreceptor; assay: Competition binding, [3H]-UK14304, α2c CHO cell membranes; conditions: for inhibition of [3H]-UK14304 binding, α2c (in words): CHO cell membranes
Protocol: as §1, §4, §5, §3

[5] = oral, approximately 24 mg of PE, healthy volunteers; cited from earlier work
[6] = highest concentration evaluated (10 μM)
[7] = at 100 μM (highest concentration evaluated)
[8] = listed as PE glucuronide batch 4

O=C(O)C(O)c1cccc(O)c1 (stereo not drawn) [3-hydroxymandelic acid]
Ki (α1a adrenoreceptor; [3H]-prazosin, read-out: Ki, a1a Binding (class symbol)): > 100 µM
binding / affinity, α1a receptor (in words) (α1a adrenoreceptor; concentrations up to 100 μM): No appreciable binding; also recorded: no affinity
stimulation of [35S]-GTPγS binding, α2b (in words) (α2b adrenoreceptor [1]): no activity
agonist activity, α2b [35S]-GTPγS assay (in words) (α2b adrenoreceptor [1]; [6]): no activity
EC50 (α2b adrenoreceptor [1]; read-out: EC50, a2b GTPγS (class symbol)): > 10 µM
stimulation of [35S]-GTPγS binding, α2c (in words) (α2c adrenoreceptor [2]): no activity
agonist activity, α2c [35S]-GTPγS assay (in words) (α2c adrenoreceptor [2]; [6]): no activity
EC50 (α2c adrenoreceptor [2]; read-out: EC50, a2c GTPγS (class symbol)): > 10 µM
inhibition of [3H]-UK14304 binding, α2a (in words) (α2a adrenoreceptor): no significant binding
Ki (α2a adrenoreceptor; [3H]-UK14304, read-out: Ki, a2a Binding (class symbol)): > 100 µM
binding / affinity, α2a receptor (in words) (α2a adrenoreceptor; [7]): no affinity
inhibition of [3H]-UK14304 binding, α2b (in words) (α2b adrenoreceptor [3]): no significant binding
Ki (α2b adrenoreceptor [3]; [3H]-UK14304, read-out: Ki, a2b Binding (class symbol)): > 100 µM
binding / affinity, α2b receptor (in words) (α2b adrenoreceptor [3]; [7]): no affinity
inhibition of [3H]-UK14304 binding, α2c (in words) (α2c adrenoreceptor [4]): but not; also recorded: no significant binding
Ki (α2c adrenoreceptor [4]; [3H]-UK14304, read-out: Ki, a2c Binding (class symbol)): > 100 µM
binding / affinity, α2c receptor (in words) (α2c adrenoreceptor [4]; [7]): no affinity
metabolite excreted in the urine [5]: 30 % of dose

CNC[C@H](O)c1cccc(O[C@@H]2O[C@H](C(=O)O)[C@@H](O)[C@H](O)[C@H]2O)c1 [PE glucuronide, (R)-PE glucuronide]
inhibition of 3H-prazosin binding, α1a (in words) (α1a adrenoreceptor; CHO cell membranes): No appreciable binding; also recorded: no binding affinity; also recorded: pharmacologically inactive
stimulation of [35S]-GTPγS binding, α2b (in words) (α2b adrenoreceptor [1]): pharmacologically inactive
stimulation of [35S]-GTPγS binding, α2b (in words) (α2b adrenoreceptor [1]; listed as PE glucuronide b2): No stimulatory activity
stimulation of [35S]-GTPγS binding, α2c (in words) (α2c adrenoreceptor [2]): nor did it activate binding; also recorded: pharmacologically inactive
stimulation of [35S]-GTPγS binding, α2c (in words) (α2c adrenoreceptor [2]; listed as PE glucuronide b2): No stimulatory activity
inhibition of [3H]-UK14304 binding, α2a (in words) (α2a adrenoreceptor): weakly inhibits binding; also recorded: pharmacologically inactive
inhibition of [3H]-UK14304 binding, α2a (in words) (α2a adrenoreceptor; listed as PE glucuronide b4): A small amount of binding
inhibition of [3H]-UK14304 binding, α2a (in words) (α2a adrenoreceptor; [8]): minimal activity
inhibition of [3H]-UK14304 binding, α2b (in words) (α2b adrenoreceptor [3]): weakly inhibits binding; also recorded: pharmacologically inactive
inhibition of [3H]-UK14304 binding, α2b (in words) (α2b adrenoreceptor [3]; listed as PE glucuronide b4): A small amount of binding
inhibition of [3H]-UK14304 binding, α2b (in words) (α2b adrenoreceptor [3]; [8]): minimal activity
inhibition of [3H]-UK14304 binding, α2c (in words) (α2c adrenoreceptor [4]): weakly inhibits binding; also recorded: pharmacologically inactive
inhibition of [3H]-UK14304 binding, α2c (in words) (α2c adrenoreceptor [4]; listed as PE glucuronide b4): A small amount of binding
inhibition of [3H]-UK14304 binding, α2c (in words) (α2c adrenoreceptor [4]; [8]): minimal activity
metabolite excreted in the urine [5]: 12 % of dose

— patent US20090280160A1, “PHENYLEPHRINE PHARMACEUTICAL FORMULATIONS AND COMPOSITIONS FOR TRANSMUCOSAL ABSORPTION” (Schering-Plough Healthcare Products, Inc., priority 2007, published 2009)
